According to ChEMBL document CHEMBL1201862, “PubChem BioAssay data set” (2004):
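Values below derive from 48-hour exposures of cells grown in 96-well plates, with endpoints linearly interpolated between the two concentrations bracketing the appropriate inhibition level. GI50: concentration for 50% inhibition of growth.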 Activity calls are given as the source filed them. Cut-off read from the data, not from the text of the source: active = GI50 up to about 1.1 µM and inactive = higher.

Key:
Experiment in all cases: NCI anticancer screen, dose series, 48 h
LOX IMVI = test system: LOX IMVI
BT-549 = test system: BT-549
NCI-H522 = test system: NCI-H522
CAKI-1 = test system: CAKI-1
MDA-MB-231 = test system: MDA-MB-231
HOP-62 = test system: HOP-62
SR = test system: SR
HL-60 = test system: HL-60
KM12 = test system: KM12
COLO 205 = test system: COLO 205
SNB-75 = test system: SNB-75
HT-29 = test system: HT-29
PC-3 = test system: PC-3
T47D = test system: T47D
RPMI-8226 = test system: RPMI-8226
M14 = test system: M14
DU-145 = test system: DU-145
RXF 393 = test system: RXF 393
NCI-H460 = test system: NCI-H460

OC(CC(O)(C(F)(F)Cl)C(F)(F)Cl)c1ccccc1 (stereo not given)
GI50 (LOX IMVI): > 10 µM (inactive)
GI50 (BT-549): > 10 µM (inactive)
GI50 (NCI-H522): > 10 µM (inactive)
GI50 (CAKI-1): > 10 µM (inactive)
GI50 (MDA-MB-231): > 10 µM (inactive)
GI50 (HOP-62): > 10 µM (inactive)
GI50 (SR): > 10 µM (inactive)
GI50 (HL-60): > 10 µM (inactive)
GI50 (KM12): > 10 µM (inactive)
GI50 (COLO 205): > 10 µM (inactive)
GI50 (SNB-75): > 10 µM (inactive)
GI50 (HT-29): > 10 µM (inactive)
GI50 (PC-3): > 10 µM (inactive)
GI50 (T47D): > 10 µM (inactive)
GI50 (RPMI-8226): > 10 µM (inactive)
GI50 (M14): < 0.001 µM (active)
GI50 (DU-145): > 10 µM (inactive)
GI50 (RXF 393): > 10 µM (inactive)
GI50 (NCI-H460): > 10 µM (inactive)

Cc1cccc(CC(Cc2ccc(C)cc2C(=O)O)C(=O)O)c1 (stereo not given)
GI50 (LOX IMVI): > 100 µM (inactive)
GI50 (BT-549): > 100 µM (inactive)
GI50 (NCI-H522): > 100 µM (inactive)
GI50 (CAKI-1): > 100 µM (inactive)
GI50 (MDA-MB-231): > 100 µM (inactive)
GI50 (HOP-62): > 100 µM (inactive)
GI50 (SR): > 100 µM (inactive)
GI50 (HL-60): > 100 µM (inactive)
GI50 (KM12): > 100 µM (inactive)
GI50 (COLO 205): > 100 µM (inactive)
GI50 (SNB-75): > 100 µM (inactive)
GI50 (HT-29): > 100 µM (inactive)
GI50 (PC-3): > 100 µM (inactive)
GI50 (T47D): > 100 µM (inactive)
GI50 (RPMI-8226): > 100 µM (inactive)
GI50 (M14): > 100 µM (inactive)
GI50 (DU-145): > 100 µM (inactive)
GI50 (RXF 393): > 100 µM (inactive)
GI50 (NCI-H460): > 100 µM (inactive)

COc1cc([C@@H]2c3cc4c(cc3[C@@H](Nc3ccc(/N=C\c5ccc(C(=O)O[C@@H](C(=O)O[C@H]6C[C@@]7(O)[C@@H](OC(=O)c8ccccc8)[C@@H]8[C@]9(OC(C)=O)CO[C@@H]9C[C@H](O)[C@@]8(C)C(=O)[C@H](OC(C)=O)C(=C6C)C7(C)C)[C@@H](NC(=O)c6ccccc6)c6ccccc6)cc5)cc3)[C@H]3COC(=O)[C@H]23)OCO4)cc(OC)c1O
GI50 (LOX IMVI): 3.49 µM (inactive)
GI50 (BT-549): 9.48 µM (inactive)
GI50 (NCI-H522): > 21.3 µM (inactive)
GI50 (CAKI-1): 0.916 µM (active)
GI50 (MDA-MB-231): 20.7 µM (inactive)
GI50 (HOP-62): 2.93 µM (inactive)
GI50 (SR): 0.0102 µM (active)
GI50 (HL-60): 0.697 µM (active)
GI50 (KM12): 15.8 µM (inactive)
GI50 (COLO 205): 1.39 µM (inactive)
GI50 (SNB-75): 2.29 µM (inactive)
GI50 (HT-29): 9.04 µM (inactive)
GI50 (PC-3): > 46.1 µM (inactive)
GI50 (T47D): 11.4 µM (inactive)
GI50 (RPMI-8226): 2.59 µM (inactive)
GI50 (M14): 5.48 µM (inactive)
GI50 (DU-145): 2.68 µM (inactive)
GI50 (RXF 393): 6.12 µM (inactive)
GI50 (NCI-H460): 0.113 µM (active)

CC(=O)O[C@H]1C(=O)[C@@]2(C)[C@H]([C@H](OC(=O)c3ccc(F)cc3)[C@]3(O)C[C@H](OC(=O)[C@H](O)[C@@H](NC(=O)c4ccccc4)c4ccccc4)C(C)=C1C3(C)C)[C@]1(OC(C)=O)CO[C@@H]1C[C@@H]2O
GI50 (LOX IMVI): 0.00828 µM (active)
GI50 (BT-549): 0.64 µM (active)
GI50 (NCI-H522): 0.0116 µM (active)
GI50 (CAKI-1): 3.82 µM (inactive)
GI50 (MDA-MB-231): 0.219 µM (active)
GI50 (HOP-62): 0.126 µM (active)
GI50 (SR): 0.0108 µM (active)
GI50 (HL-60): 0.00469 µM (active)
GI50 (KM12): 0.0113 µM (active)
GI50 (COLO 205): 0.0108 µM (active)
GI50 (SNB-75): 0.0189 µM (active)
GI50 (HT-29): 0.00678 µM (active)
GI50 (PC-3): 0.0112 µM (active)
GI50 (T47D): 0.00931 µM (active)
GI50 (RPMI-8226): 0.00592 µM (active)
GI50 (M14): 0.0559 µM (active)
GI50 (DU-145): 0.0395 µM (active)
GI50 (RXF 393): 0.0813 µM (active)
GI50 (NCI-H460): 0.0132 µM (active)

COC(=O)Cc1ccc(Oc2nc3ccccc3nc2-c2cccs2)cc1
GI50 (LOX IMVI): > 100 µM (inactive)
GI50 (BT-549): 57.8 µM (inactive)
GI50 (NCI-H522): > 100 µM (inactive)
GI50 (CAKI-1): > 100 µM (inactive)
GI50 (MDA-MB-231): 27.2 µM (inactive)
GI50 (HOP-62): 38.5 µM (inactive)
GI50 (SR): > 100 µM (inactive)
GI50 (HL-60): > 100 µM (inactive)
GI50 (KM12): > 100 µM (inactive)
GI50 (COLO 205): > 100 µM (inactive)
GI50 (SNB-75): 6.81 µM (inactive)
GI50 (HT-29): > 100 µM (inactive)
GI50 (PC-3): > 100 µM (inactive)
GI50 (T47D): > 100 µM (inactive)
GI50 (RPMI-8226): > 100 µM (inactive)
GI50 (M14): > 100 µM (inactive)
GI50 (DU-145): > 100 µM (inactive)
GI50 (RXF 393): 19.1 µM (inactive)
GI50 (NCI-H460): > 100 µM (inactive)
